Assay results reported in patent US8415342B2, “Besifloxacin ophthalmic composition for the treatment or control of infection” (Bausch & Lomb Incorporated, priority 2008, dated 2013).

Legend:
Assay type in all cases: cell-based
[1] = system: S. mitis group; assay: MIC of clinical trial isolates, Studies 373, 433, 434; details: Streptococcus mitis group, N 45
Description: (§1) PFGE testing was performed per standard procedures.
(§2) The antibacterial susceptibility profile of each Visit 1 bacterial isolate was determined for besifloxacin and other antimicrobials.

[2] = system: CDC coryneform group G; assay: as above; details: N 29
Description: as §1, §2

[3] = system: H. influenzae; assay: as above; details: Haemophilus influenzae, all phenotypes, N 344
Description: as §1, §2

[4] = system: S. pneumoniae; assay: as above; details: Streptococcus pneumoniae, all phenotypes, N 302
Description: as §1, §2

[5] = system: Streptococcus oralis; assay: as above; details: N 18
Description: as §1, §2

[6] = system: Streptococcus salivarius; assay: as above; details: N 9
[7] = system: Staphylococcus hominis; assay: as above; details: N 9
[8] = system: Streptococcus mitis; assay: as above; details: Streptococcus mitis (listed separately from S. mitis group), N 20
Description: PFGE testing was performed per standard procedures. […] Analysis Populations

[9] = system: baseline pathogens of bacterial conjunctivitis patients; assay: MIC of baseline clinical trial isolates, Studies 373, 433, 434 (all species)
[10] = system: S. epidermidis; assay: MIC of clinical trial isolates, Studies 373, 433, 434; details: Staphylococcus epidermidis, all phenotypes, N 111
[11] = system: Staphylococcus lugdunensis; assay: as above; details: N 8
[12] = system: S. aureus; assay: as above; details: Staphylococcus aureus, all phenotypes, N 190
[13] = system: Corynebacterium pseudodiphtheriticum; assay: as above; details: N 8
[14] = system: Corynebacterium striatum; assay: as above; details: N 8

CC[C@H]1OC(=O)[C@H](C)[C@@H](O[C@H]2C[C@@](C)(OC)[C@@H](O)[C@H](C)O2)[C@H](C)[C@@H](O[C@@H]2O[C@H](C)C[C@H](N(C)C)[C@H]2O)[C@](C)(O)C[C@@H](C)CN(C)[C@H](C)[C@@H](O)[C@]1(C)O [AZITH]
MIC50 [1]: 2 µg/mL | MIC90 [1]: 8 µg/mL | MIC90 [2]: >8 µg/mL | MIC50 [3]: 2 µg/mL | MIC90 [3]: 4 µg/mL | MIC90 [4]: >8 µg/mL | MIC50 [5]: 4 µg/mL | MIC90 [5]: >8 µg/mL | MIC50 [6]: 8 µg/mL | MIC50 [7]: 4 µg/mL | MIC50 [8]: 2 µg/mL | MIC90 [8]: 4 µg/mL | MIC Range [8]: 0.06 to 8 µg/mL | MIC50 ([9]; All organisms, N 1324): 2 µg/mL | MIC90 ([9]; All organisms, N 1324): >8 µg/mL | MIC50 ([9]; Gram-negative, N 438): 2 µg/mL | MIC90 ([9]; Gram-negative, N 438): >8 µg/mL | MIC50 ([9]; Gram-positive, N 886): 1 µg/mL | MIC90 ([9]; Gram-positive, N 886): >8 µg/mL | MIC50 [10]: 1 µg/mL | MIC90 [10]: >8 µg/mL | MIC50 [11]: 0.5 µg/mL | MIC50 [12]: 2 µg/mL | MIC90 [12]: >8 µg/mL | MIC50 [13]: >8 µg/mL

N[C@@H]1CCCCN(c2c(F)cc3c(=O)c(C(=O)O)cn(C4CC4)c3c2Cl)C1 [BESI]
MIC50 [1]: 0.125 µg/mL | MIC90 [1]: 0.25 µg/mL | MIC Range [1]: 0.03 to 1 µg/mL | MIC50 [2]: 0.015 µg/mL | MIC90 [2]: 0.125 µg/mL | MIC Range [2]: 0.008 to 2 µg/mL | MIC50 [3]: 0.03 µg/mL | MIC90 [3]: 0.06 µg/mL | MIC Range [3]: 0.008 to 0.5 µg/mL | MIC50 [4]: 0.06 µg/mL | MIC90 [4]: 0.125 µg/mL | MIC Range [4]: 0.03 to 0.25 µg/mL | MIC50 [5]: 0.125 µg/mL | MIC90 [5]: 0.25 µg/mL | MIC Range [5]: 0.015 to 0.25 µg/mL | MIC50 [6]: 0.125 µg/mL | MIC Range [6]: 0.06 to 0.25 µg/mL | MIC50 [7]: 0.06 µg/mL | MIC Range [7]: 0.03 to 0.5 µg/mL | MIC50 [8]: 0.125 µg/mL | MIC90 [8]: 0.125 µg/mL | MIC Range [8]: 0.06 to 0.25 µg/mL | MIC50 ([9]; All organisms, N 1324): 0.06 µg/mL | MIC90 ([9]; All organisms, N 1324): 0.25 µg/mL | MIC Range ([9]; All organisms, N 1324): 0.008 to 8 µg/mL | MIC50 ([9]; Gram-negative, N 438): 0.03 µg/mL | MIC90 ([9]; Gram-negative, N 438): 0.5 µg/mL | MIC Range ([9]; Gram-negative, N 438): 0.008 to 8 µg/mL | MIC50 ([9]; Gram-positive, N 886): 0.06 µg/mL | MIC90 ([9]; Gram-positive, N 886): 0.25 µg/mL | MIC Range ([9]; Gram-positive, N 886): 0.008 to 8 µg/mL | MIC50 [10]: 0.06 µg/mL | MIC90 [10]: 0.5 µg/mL | MIC Range [10]: 0.03 to 4 µg/mL | MIC50 [11]: 0.125 µg/mL | MIC Range [11]: 0.06 to 0.5 µg/mL | MIC50 [12]: 0.03 µg/mL | MIC90 [12]: 0.5 µg/mL | MIC Range [12]: 0.008 to 8 µg/mL | MIC50 [13]: 0.25 µg/mL | MIC Range [13]: 0.015 to 0.25 µg/mL | MIC50 [14]: 0.015 µg/mL | MIC Range [14]: 0.015 to 0.25 µg/mL

COc1c(N2CCNC(C)C2)c(F)cc2c(=O)c(C(=O)O)cn(C3CC3)c12 (stereo not shown) [GATI]
MIC50 [1]: 0.5 µg/mL | MIC90 [1]: 0.5 µg/mL | MIC Range [1]: 0.06 to 2 µg/mL | MIC50 [2]: 0.06 µg/mL | MIC90 [2]: 0.5 µg/mL | MIC Range [2]: 0.03 to 8 µg/mL | MIC50 [3]: 0.015 µg/mL | MIC90 [3]: 0.03 µg/mL | MIC Range [3]: ≦0.004-0.5 μg/mL | MIC50 [4]: 0.25 µg/mL | MIC90 [4]: 0.5 µg/mL | MIC Range [4]: 0.125 to 1 µg/mL | MIC50 [5]: 0.5 µg/mL | MIC90 [5]: 1 µg/mL | MIC Range [5]: 0.03 to 1 µg/mL | MIC50 [6]: 0.5 µg/mL | MIC Range [6]: 0.5 to 2 µg/mL | MIC50 [7]: 0.125 µg/mL | MIC Range [7]: 0.06 to 2 µg/mL | MIC50 [8]: 0.5 µg/mL | MIC90 [8]: 1 µg/mL | MIC Range [8]: 0.25 to 1 µg/mL | MIC50 ([9]; All organisms, N 1324): 0.125 µg/mL | MIC90 ([9]; All organisms, N 1324): 0.5 µg/mL | MIC50 ([9]; Gram-negative, N 438): 0.015 µg/mL | MIC90 ([9]; Gram-negative, N 438): 0.25 µg/mL | MIC Range ([9]; Gram-negative, N 438): ≦0.004-8 μg/mL | MIC50 ([9]; Gram-positive, N 886): 0.25 µg/mL | MIC90 ([9]; Gram-positive, N 886): 1 µg/mL | MIC50 [10]: 0.125 µg/mL | MIC90 [10]: 2 µg/mL | MIC50 [11]: 0.25 µg/mL | MIC Range [11]: 0.25 to 2 µg/mL | MIC50 [12]: 0.125 µg/mL | MIC90 [12]: 4 µg/mL | MIC50 [13]: 0.5 µg/mL | MIC Range [13]: 0.06 to 0.5 µg/mL | MIC50 [14]: 0.03 µg/mL | MIC Range [14]: 0.015 to 2 µg/mL

C[C@H]1COc2c(N3CCN(C)CC3)c(F)cc3c(=O)c(C(=O)O)cn1c23 [LEVO]
MIC50 [1]: 1 µg/mL | MIC90 [1]: 2 µg/mL | MIC50 [2]: 0.06 µg/mL | MIC90 [2]: 1 µg/mL | MIC50 [3]: 0.03 µg/mL | MIC90 [3]: 0.03 µg/mL | MIC Range [3]: ≦0.004-1 μg/mL | MIC50 [4]: 0.5 µg/mL | MIC90 [4]: 1 µg/mL | MIC Range [4]: 0.125 to 2 µg/mL | MIC50 [5]: 1 µg/mL | MIC90 [5]: 2 µg/mL | MIC Range [5]: 0.125 to 2 µg/mL | MIC50 [6]: 1 µg/mL | MIC Range [6]: 1 to 2 µg/mL | MIC50 [7]: 0.125 µg/mL | MIC Range [7]: 0.125 to 4 µg/mL | MIC50 [8]: 1 µg/mL | MIC90 [8]: 1 µg/mL | MIC Range [8]: 0.5 to 2 µg/mL | MIC50 ([9]; All organisms, N 1324): 0.25 µg/mL | MIC90 ([9]; All organisms, N 1324): 1 µg/mL | MIC50 ([9]; Gram-negative, N 438): 0.03 µg/mL | MIC90 ([9]; Gram-negative, N 438): 0.125 µg/mL | MIC Range ([9]; Gram-negative, N 438): ≦0.004-8 μg/mL | MIC50 ([9]; Gram-positive, N 886): 0.5 µg/mL | MIC90 ([9]; Gram-positive, N 886): 2 µg/mL | MIC50 [10]: 0.25 µg/mL | MIC90 [10]: 8 µg/mL | MIC50 [11]: 0.25 µg/mL | MIC Range [11]: 0.25 to 2 µg/mL | MIC50 [12]: 0.25 µg/mL | MIC90 [12]: 8 µg/mL | MIC50 [13]: 0.5 µg/mL | MIC Range [13]: 0.06 to 1 µg/mL | MIC50 [14]: 0.06 µg/mL | MIC Range [14]: 0.03 to 4 µg/mL

CC1COc2c(N3CCN(C)CC3)c(F)cc3c(=O)c(C(=O)O)cn1c23 (stereo not shown) [OFLOX]
MIC50 [1]: 2 µg/mL | MIC90 [1]: 4 µg/mL | MIC Range [1]: 0.25 µg/mL | MIC50 [2]: 0.125 µg/mL | MIC90 [2]: 2 µg/mL | MIC50 [3]: 0.03 µg/mL | MIC90 [3]: 0.06 µg/mL | MIC50 [4]: 1 µg/mL | MIC90 [4]: 2 µg/mL | MIC50 [5]: 2 µg/mL | MIC90 [5]: 4 µg/mL | MIC Range [5]: 0.125 µg/mL | MIC50 [6]: 2 µg/mL | MIC Range [6]: 2 to 4 µg/mL | MIC50 [7]: 0.25 µg/mL | MIC Range [7]: 0.25 µg/mL | MIC50 [8]: 2 µg/mL | MIC90 [8]: 2 µg/mL | MIC Range [8]: 1 to 4 µg/mL | MIC50 ([9]; All organisms, N 1324): 0.5 µg/mL | MIC90 ([9]; All organisms, N 1324): 2 µg/mL | MIC50 ([9]; Gram-negative, N 438): 0.03 µg/mL | MIC90 ([9]; Gram-negative, N 438): 0.25 µg/mL | MIC50 ([9]; Gram-positive, N 886): 1 µg/mL | MIC90 ([9]; Gram-positive, N 886): 4 µg/mL | MIC50 [10]: 0.5 µg/mL | MIC90 [10]: >8 µg/mL | MIC Range [10]: 0.25 µg/mL | MIC50 [11]: 1 µg/mL | MIC50 [12]: 0.5 µg/mL | MIC90 [12]: >8 µg/mL | MIC50 [13]: 1 µg/mL | MIC Range [13]: 0.125 to 2 µg/mL | MIC50 [14]: 0.125 µg/mL
